Assay results from patent US20090087420A1, “STABLE SOLUTION OF REDUCED COENZYME Q” (Kaneka Corporation, priority 2001, published 2009).

Experiment: Oxidation stability of reduced coenzyme Q10 solubilized with a surfactant during air storage
Type: physicochemical
Settings: for period of stable storage: 0.05% by weight reduced coenzyme Q10, air storage at 23° C. (FIG. 4)
Procedure: A solution of reduced coenzyme Q10 using a surfactant was prepared by the method described below, and the oxidation stability under storage was evaluated. As the surfactant, Polysolvate 80 (Tween 80) or polyoxyethylene hardened castor oil (HCO 60) was used, and an aqueous solution of 1% by weight or 0.1% by weight of the surfactant was prepared. Then, the reduced coenzyme Q10 was added to the aqueous solution so that the final concentration of the solution was 0.05% by weight. […] In FIG. 4, each value is an average with n=2. […] The results of this test indicate that with a surfactant concentration of 0.1% by weight, the reduced coenzyme Q10 can be stably stored at 23° C. for about 1 month. […] Therefore, when preparing a solution or emulsion with a surfactant, the concentration of the surfactant used is decreased to prepare a solution which can be stored for a longer period of time. A solution or emulsion with 1% by weight or more of a surfactant can be used under conditions in which the solution or emulsion is prepared before use, or the solution or emulsion is stored for a short period or stored in an airtight condition such as a completely anaerobic condition.

For `COc1c(O)c(C)c(C/C=C(\C)CC/C=C(\C)CC/C=C(\C)CC/C=C(\C)CC/C=C(\C)CC/C=C(\C)CC/C=C(\C)CC/C=C(\C)CC/C=C(\C)CCC=C(C)C)c(O)c1OC` [reduced coenzyme Q10], the “period of stable storage” value (surfactant (Tween 80 or HCO 60) concentration 0.1% by weight) was “about 1 month”, the “period of stable storage” value (surfactant (Tween 80 or HCO 60) concentration 1% by weight) was 1 week and the “oxidation after the stable period (in words)” value (surfactant concentration 1% by weight, after 1 week of air storage at 23° C.) was “rapidly oxidized”.
